# In patent US11213527B2, “Inhibitory effect of low molecular weight compound on cancer and fibrosis” (NATIONAL UNIVERSITY CORPORATION TOTTORI UNIVERSITY, priority 2014, dated 2022):
# Key:
# [1] = tested on: HuH7 cells (a liver cancer cell line); assay: Inhibitory effect on cancer cells (WST assay); assay type: cell-based; conditions: 0-50 μM; 4 days (concentration-dependent) or 0, 1, 2, 4 days (time-dependent); DMSO control
# Description: HuH7 cells (a liver cancer cell line) were cultured in a DMEM on a 10-cm cell culture dish (TPP Techno Plastic Products AG, Trasadingen, Switzerland) at 5% CO2, 37° C., and a humidity of 100%. After the cells were grown to 70 to 90% confluency, 200 μL of a Trypsin/EDTA solution was added thereto to detach the cells. The cells were centrifuged at 1000 rpm for 5 min at room temperature for recovery. Then, the cells in one dish were divided into four dishes and subcultured.
# When a concentration-dependent anti-tumor effect was examined, HuH7 cells at 70 to 90% confluency were collected, and 1×10^4 cells were seeded in each well of a 96-well plate (FALCON). When a time-dependent anti-tumor effect was examined, 5×10^3 cells were seeded. Twenty-four hours after the seeding, the cells were treated with IC-2, PN3-13, or HC-1, and further incubated at 37° C. DMSO was used as a control.
# The concentration of each low-molecular-weight compound was provided below. […] After that, absorbance (at a measurement wavelength of 450 nm/a control wavelength of 600 nm) was measured by a 96-well microplate reader (TECAN, Zurich, Switzerland). The absorbance of cells was calculated by subtracting the absorbance of reagent blank from the measured result, and was then converted to the viable cell count. Also, the IC50 of each low-molecular-weight compound was determined by using an equation: […]
# unsorted HuH7 cells = assay: Mice transplanted with unsorted HuH7 cells; assay type: in vivo; conditions: unsorted HuH7 cells instead of CD44-positive HuH7 cells
# Source text: The effect of treating malignant tumors may be evaluated by imaging, endoscopic examination, biopsy, or detection of a malignant tumor marker. In addition, the effect of treating cancer stem cells may be evaluated by imaging, endoscopic examination, biopsy, or detection of a cancer stem cell marker. In addition, the effect of treating fibrosis may be evaluated by imaging, endoscopic examination, biopsy, or detection of a fibrosis marker. […] At this time, the level of a marker after administration of a therapeutic drug may be 0.7, 0.5, 0.3, or 0.1 times the level before the administration (or of a control). […] At this time, the number of marker-positive cells after administration of the therapeutic drug may be 0.7, 0.5, 0.3, or 0.1 times the number before the administration (or of a control). Note that in Example 2 below, the therapeutic effect was evaluated by using mice in which CD44-positive HuH7 cells had been subcutaneously transplanted. The present inventors also replaced the above CD44-positive HuH7 cells by unsorted HuH7 cells.
structure (smiles),measurement,setting,value
O=C1[C@H](Cc2ccccc2)N2C(=O)CCN(C(=O)NCc3ccccc3)[C@H]2CN1Cc1cccc2ccccc12 [IC-2],proliferation of HuH7 cells (cell viability),[1],significantly inhibited proliferation
same,effect of treating a malignant tumor,unsorted HuH7 cells,exhibits an effect of treating a malignant tumor
